Consider one compound from patent publication US12427151B2, “Compositions and method of treating cancer” (The Regents of the University of California, priority 2017, dated 2025).

Data set [1] has as its system S. epidermidis (ATCC12228). Briefly: BrdU incorporation assay in bacteria. The class given is cell-based. The note with it: 6-HAP 25 μg/mL, 60 min. As for the experimental part: (a) Time course killing of GAS in THB containing 6-HAP (25 μg/mL), mitomycin C (5 μg/mL), or LL-37 (10 μM). At each indicated time point, live GAS in the media was measured by counting CFU on an agar plate. The data represent mean±SE of four individual experiments. (b) Membrane permeability of GAS incubated in THB containing 6-HAP (25 μg/mL), mitomycin C (5 μg/mL) and LL-37 (10 μM) for 1 hr. The bacteria with compromised plasma membranes (Red) can be distinguished from those with intact membranes (Green). (c) BrdU incorporation into nascent DNA of GAS after incubation with 6-HAP (25 μg/mL) or mitomycin C (5 μg/mL) in THB containing BrdU (10 μM) for 30 or 60 min. (d) BrdU incorporation into nascent DNA of S. epidermidis ATCC12228 after incubation with 6-HAP (25 μg/mL) or mitomycin C (5 μg/mL) in THB containing BrdU (10 μM) for 60 min. The data represent mean±SE of five individual experiments (*P<0.05 and **P<0.01 by Student's t-test vs vehicle control). (e-f) Capacity of 6-HAP to block in vitro DNA extension by Klenow fragment polymerase. […] Extension reaction was analyzed on a 20% acrylamide gel by electrophoresis (f). […] GAS survival was measured by counting CFU. […]
BrdU incorporation assay. […] BrdU incorporation into nascent DNA was measured in a time-dependent manner using BrdU incorporation assay kit (Roche) according to the manual.
On the technique in general: Incorporation of labelled thymidine or its analogues reports DNA synthesis.

For data set [2], the system named is normal human keratinocytes (NHEK). As to the kind of experiment: Cell proliferation assay (BrdU incorporation). The class given is cell-based. The settings on record: 24-hr incubation, until a very high dose (100 μg/mL). As for the experimental part: (a-b) Selective antiproliferative activity of 6-HAP against Pam212 squamous cell carcinoma, but not against normal keratinocytes. BrdU incorporation into Pam212 cells (b) or NHEKs (b) after 4-hr or 24-hr incubation, respectively, in suitable media containing indicated concentrations of 6-HAP or mitomycin C (10 μg/mL) (a). (c) Expression of mARC1 and mARC2 in NHEKs, squamous cell carcinoma (Pam212), melanoma (B16F10) and lymphoma cell lines (L5178). To compare relative expression level in each cells, data was shown as relative to GAPDH expression. (d) Expression of mARC1 and mARC2 in NHEKs treated with control siRNA, mARCI siRNA and mARC2 siRNA. (e) Effect of gene silencing with mARC1 and mARC2 siRNA on sensitivity to 6-HAP in NHEKs. NHEKs treated with each siRNA were incubated for 48 hrs and then incubated with 10 μg/mL of 6-HAP for 24 hrs.
Cell culture and cell proliferation assay. B16F10 mouse melanoma, Pam212, L5178 and YAC-1 mouse […] cell lines were obtained from American Type Culture Collection. […] After 4-hr (tumor cell lines) or 24-hr (NHEK) incubation with 6-HAP, proliferative activity of cells was colorimetrically determined by monitoring BrdU incorporation with Cell Proliferation kit according to the manual (Roche).

The subject of data set [3] is YAC-1 lymphoma. As to the kind of experiment: Cell proliferation assay (BrdU incorporation). The class given is cell-based, mouse. The settings on record: YAC-1, 4-hr incubation. As for the experimental part:
(§1) Proliferative activity of tumor cell line, L5178 (a), YAC-1 lymphoma (b), B16F10 melanoma (c) after 4-hr incubation in suitable media containing indicated concentrations of 6-HAP or mitomycin C (10 μg/mL). Proliferative activity of cells was determined by monitoring BrdU incorporation. The data represent mean±SE of four individual experiments.
(§2) Cell culture and cell proliferation assay. B16F10 mouse melanoma, Pam212, L5178 and YAC-1 mouse […] cell lines were obtained from American Type Culture Collection. Pam212, L5178 and YAC-1 cell lines were maintained in RPMI-1640 supplemented with sodium pyruvate (1 mM), nonessential amino acids (0.1 mM), penicillin (100 unit/mL), streptomycin (100 μg/mL) and 10% heat-inactivated fetal bovine serum (FBS) or horse serum at 37° C. under atmosphere of 5% (v/v) CO2 in air. B16F10 cell line was maintained in DMEM supplemented with penicillin (100 unit/mL), streptomycin (100 μg/mL) and 10% heat-inactivated FBS. NHEKs were obtained from Invitrogen (Life technologies, Grand Island, NY) and maintained in EpiLife medium (Life technologies) supplemented with 60 μM Calcium, epidermal growth factors, penicillin and streptomycin. After 4-hr (tumor cell lines) or 24-hr (NHEK) incubation with 6-HAP, proliferative activity of cells was colorimetrically determined by monitoring BrdU incorporation with Cell Proliferation kit according to the manual (Roche).

In data set [4] the test system is B16F10 melanoma. As to the kind of experiment: Cell proliferation assay (BrdU incorporation). Type of data set: cell-based, mouse. The settings on record: B16F10, 4-hr incubation. As for the experimental part:
as §1, §2

The subject of data set [5] is L5178 lymphoma. Briefly: Cell proliferation assay (BrdU incorporation). The class given is cell-based, mouse. The settings on record: L5178, 4-hr incubation. As for the experimental part:
as §1, §2

The structures appear in SMILES notation.

For the compound `ONc1ncnc2nc[nH]c12` [6-HAP, 6-N-hydroxyaminopurine], the “BrdU incorporation in S. epidermidis” value in data set [1] is listed as “did not affect”. In addition, the BrdU incorporation result in data set [2] is given as “not affected”; in data set [3], “inhibited”; in data set [4], “inhibited”; in data set [5], “inhibited”.
